Measured values taken from patent US20240366639A1, “HETEROCYCLIC GLP-1 AGONISTS” (GASHERBRUM BIO, INC., priority 2021, published 2024).
Where a name gives a salt, the structure may show the parent alone. Read-outs that look alike come from different tables or passages of the source.

Molecular target: T1, GLP-1 Receptor (GLP1R) (Homo sapiens, UniProt P43220)
T1 construct: host or cells: HEK293/GLP1R/CRE-LUC
Assay: GLP-1R agonist cAMP stimulation assay (Method 3)
Format: cell-based
Conditions: HEK293/GLP1R/CRE-LUC cells (HDB), Method 3, 30 min incubation
Protocol: Method 3: Activation of GLP-1 receptor is known to stimulate cyclic AMP (cAMP) production in cells which indicates primary coupling to the Gαs subunit of the G protein heterotrimeric complex.
To optimize functional activity directed toward Gαs coupling, a HEK293/CRE-Luc cell line developed by HDB stably expressing the GLP-1 Receptor was used, 200× concentration of compound working solutions were prepared (Agilent Technologies Bravo) with 1/2 log serial dilution in 384-well Echo LDV plate (Labcyte, Cat #LP-0200). 50 nL/well 200× concentration of compound working solutions were moved to 384-well white low volume plate (Greiner, Cat #784075) using Labcyte ECHO550. 1×10^5 cells/mL HEK293/GLP1R/CRE-LUC(HD Biosciences) cell suspensions prepared with assay buffer [DPBS containing 0.5 mM IBMX (Sigma, Cat #15879) and 0.1% BSA (GENVIEW, Cat #FA016-100 g)], 10 μL cell suspensions were added to each well of previous generated assay plate which already contains 50 nL compound at 200× concentration using ThermoFisher Multidrop Combi (1000 cells/well). Seal the plate and incubate at 37° C. with 5% CO2 for 30 min.
After incubation the cAMP assay signal was generated using cAMP dynamic 2 Kit (Cisbio). 5 μL cAMP-d2 working solution was added to each well, followed with 5 μL Anti-cAMP antibody-cryptate working solution added to each well using ThermoFisher Multidrop Combi. Incubate at room temperature for 1 hour protected from light. Read the fluorescence at 665 nm and 615 nm with Reader PerkinElmer EnVision.

[1] = read-out: GLP1R cAMP Stimulation DR: EC50 (nM) [Species: Human, Assay Cell Line: HDB]
[2] = read-out: GLP1R cAMP Stimulation DR: pEC50 (M) [Species: Human, Assay Cell Line: HDB] (converted)

T1 sequence (P43220 24-463): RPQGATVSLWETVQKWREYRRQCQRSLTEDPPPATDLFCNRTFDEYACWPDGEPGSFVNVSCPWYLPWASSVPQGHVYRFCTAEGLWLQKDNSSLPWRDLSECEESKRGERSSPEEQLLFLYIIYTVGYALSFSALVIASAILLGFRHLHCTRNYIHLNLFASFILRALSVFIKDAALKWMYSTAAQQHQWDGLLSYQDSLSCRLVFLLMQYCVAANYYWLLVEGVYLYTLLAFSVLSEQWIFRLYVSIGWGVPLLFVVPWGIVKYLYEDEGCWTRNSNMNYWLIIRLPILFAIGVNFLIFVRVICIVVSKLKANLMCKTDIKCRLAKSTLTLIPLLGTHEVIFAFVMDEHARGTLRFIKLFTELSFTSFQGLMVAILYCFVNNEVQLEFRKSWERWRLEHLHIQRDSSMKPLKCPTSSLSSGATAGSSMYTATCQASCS

Compound	EC50 [1]	EC50 [2]
CCP(=O)(CC)c1ccc(-n2ccn(-c3c4c(nn3-c3cc(C)c(F)c(C)c3)CCN(C(=O)c3cc5cc(C6CCOCC6)ccc5n3[C@@]3(c5noc(=O)[nH]5)C[C@@H]3C)[C@H]4C)c2=O)cc1NS(C)(=O)=O [Compound 116a]	0.2 to 0.5 nM	0.1 to 1 nM
CCP(=O)(CC)c1ccc(-n2ccn(-c3c4c(nn3-c3cc(C)c(F)c(C)c3)CCN(C(=O)c3cc5cc(C6CCOCC6)ccc5n3[C@@]3(c5noc(=O)[nH]5)C[C@@H]3C)[C@H]4C)c2=O)cc1N(C)C [Compound 117a, 3-((1S,2S)-1-(2-((S)-3-(3-(4-(diethylphosphoryl)-3-(dimethylamino)phenyl)-2-oxo-2,3-dihydro-1H-imidazol-1-yl)-2-(4-fluoro-3,5-dimethylphenyl)-4-methyl-4,5,6,7-tetrahydro-2H-pyrazolo[4,3-c]pyridine-5-carbonyl)-5-(tetrahydro-2H-pyran-4-yl)-1H-indol-1-yl)-2-methylcyclopropyl)-1,2,4-oxadiazol-5(4H)-one HCl salt]	0.2 to 0.5 nM	0.1 to 1 nM
CCP(=O)(CC)c1ccc(-n2ccn(-c3c4c(nn3-c3cc(C)c(F)c(C)c3)CCN(C(=O)c3cc5cc(C6CCOCC6)ccc5n3[C@@]3(c5noc(=O)[nH]5)C[C@@H]3C)[C@H]4C)c2=O)cc1OC [Compound 118a, 3-((1S,2S)-1-(2-((S)-3-(3-(4-(diethylphosphoryl)-3-methoxyphenyl)-2-oxo-2,3-dihydro-1H-imidazol-1-yl)-2-(4-fluoro-3,5-dimethylphenyl)-4-methyl-4,5,6,7-tetrahydro-2H-pyrazolo[4,3-c]pyridine-5-carbonyl)-5-(tetrahydro-2H-pyran-4-yl)-1H-indol-1-yl)-2-methylcyclopropyl)-1,2,4-oxadiazol-5(4H)-one]	< 0.1 nM	≤ 0.1 nM
CCP(=O)(CC)c1ccc(-n2ccn(-c3c4c(nn3-c3cc(C)c(F)c(C)c3)CCN(C(=O)c3cc5cc(C6CCOCC6)ccc5n3[C@@]3(c5noc(=O)[nH]5)C[C@@H]3C)[C@H]4C)c2=O)cc1NC(C)C [Compound 119a, 3-((1S,2S)-1-(2-((S)-3-(3-(4-(diethylphosphoryl)-3-(isopropylamino)phenyl)-2-oxo-2,3-dihydro-1H-imidazol-1-yl)-2-(4-fluoro-3,5-dimethylphenyl)-4-methyl-4,5,6,7-tetrahydro-2H-pyrazolo[4,3-c]pyridine-5-carbonyl)-5-(tetrahydro-2H-pyran-4-yl)-1H-indol-1-yl)-2-methylcyclopropyl)-1,2,4-oxadiazol-5(4H)-one]	0.2 to 0.5 nM	0.1 to 1 nM
CCNc1cc(-n2ccn(-c3c4c(nn3-c3cc(C)c(F)c(C)c3)CCN(C(=O)c3cc5cc(C6CCOCC6)ccc5n3[C@@]3(c5noc(=O)[nH]5)C[C@@H]3C)[C@H]4C)c2=O)ccc1P(=O)(CC)CC [Compound 120a, 3-((1S,2S)-1-(2-((S)-3-(3-(4-(diethylphosphoryl)-3-(ethylamino)phenyl)-2-oxo-2,3-dihydro-1H-imidazol-1-yl)-2-(4-fluoro-3,5-dimethylphenyl)-4-methyl-4,5,6,7-tetrahydro-2H-pyrazolo[4,3-c]pyridine-5-carbonyl)-5-(tetrahydro-2H-pyran-4-yl)-1H-indol-1-yl)-2-methylcyclopropyl)-1,2,4-oxadiazol-5(4H)-one]	< 0.1 nM	≤ 0.1 nM
CCP(=O)(CC)c1ccc(-n2ccn(-c3c4c(nn3-c3cc(C)c(F)c(C)c3)CCN(C(=O)c3cc5cc(C6CCOCC6)ccc5n3[C@@]3(c5noc(=O)[nH]5)C[C@@H]3C)[C@H]4C)c2=O)cc1NC [Compound 121a, 3-((1S,2S)-1-(2-((S)-3-(3-(4-(diethylphosphoryl)-3-(methylamino)phenyl)-2-oxo-2,3-dihydro-1H-imidazol-1-yl)-2-(4-fluoro-3,5-dimethylphenyl)-4-methyl-4,5,6,7-tetrahydro-2H-pyrazolo[4,3-c]pyridine-5-carbonyl)-5-(tetrahydro-2H-pyran-4-yl)-1H-indol-1-yl)-2-methylcyclopropyl)-1,2,4-oxadiazol-5(4H)-one]	< 0.1 nM	≤ 0.1 nM
Cc1cc(-n2nc3c(c2-n2ccn(-c4ccc(P(C)(C)=O)cc4F)c2=O)[C@H](C)N(C(=O)c2cc4cc(C5CCOCC5)ccc4n2[C@@]2(c4noc(=O)[nH]4)C[C@@H]2C)CC3)cc(C)c1F [Compound 122a, 3-((1S,2S)-1-(2-((S)-3-(3-(4-(dimethylphosphoryl)-2-fluorophenyl)-2-oxo-2,3-dihydro-1H-imidazol-1-yl)-2-(4-fluoro-3,5-dimethylphenyl)-4-methyl-4,5,6,7-tetrahydro-2H-pyrazolo[4,3-c]pyridine-5-carbonyl)-5-(tetrahydro-2H-pyran-4-yl)-1H-indol-1-yl)-2-methylcyclopropyl)-1,2,4-oxadiazol-5(4H)-one]	< 0.1 nM	≤ 0.1 nM
Cc1cc(-n2nc3c(c2-n2ccn(-c4ccc(P(C)(C)=O)c(OC(F)(F)F)c4)c2=O)[C@H](C)N(C(=O)c2cc4cc(C5CCOCC5)ccc4n2[C@@]2(c4noc(=O)[nH]4)C[C@@H]2C)CC3)cc(C)c1F [Compound 123a, 3-((1S,2S)-1-(2-((S)-3-(3-(4-(dimethylphosphoryl)-3-(trifluoromethoxy)phenyl)-2-oxo-2,3-dihydro-1H-imidazol-1-yl)-2-(4-fluoro-3,5-dimethylphenyl)-4-methyl-4,5,6,7-tetrahydro-2H-pyrazolo[4,3-c]pyridine-5-carbonyl)-5-(tetrahydro-2H-pyran-4-yl)-1H-indol-1-yl)-2-methylcyclopropyl)-1,2,4-oxadiazol-5(4H)-one]	0.2 to 0.5 nM	0.1 to 1 nM
Cc1cc(-n2ccn(-c3c4c(nn3-c3cc(C)c(F)c(C)c3)CCN(C(=O)c3cc5cc(C6CCOCC6)ccc5n3[C@@]3(c5noc(=O)[nH]5)C[C@@H]3C)[C@H]4C)c2=O)ccc1P(C)(C)=O [Compound 124a, 3-((1S,2S)-1-(2-((S)-3-(3-(4-(dimethylphosphoryl)-3-methylphenyl)-2-oxo-2,3-dihydro-1H-imidazol-1-yl)-2-(4-fluoro-3,5-dimethylphenyl)-4-methyl-4,5,6,7-tetrahydro-2H-pyrazolo[4,3-c]pyridine-5-carbonyl)-5-(tetrahydro-2H-pyran-4-yl)-1H-indol-1-yl)-2-methylcyclopropyl)-1,2,4-oxadiazol-5(4H)-one]	< 0.1 nM	≤ 0.1 nM
Cc1cc(-n2nc3c(c2-n2ccn(-c4ccc(P(C)(C)=O)c(N5CCOCC5)c4)c2=O)[C@H](C)N(C(=O)c2cc4cc(C5CCOCC5)ccc4n2[C@@]2(c4noc(=O)[nH]4)C[C@@H]2C)CC3)cc(C)c1F [Compound 125a, 3-((1S,2S)-1-(2-((S)-3-(3-(4-(dimethylphosphoryl)-3-morpholinophenyl)-2-oxo-2,3-dihydro-1H-imidazol-1-yl)-2-(4-fluoro-3,5-dimethylphenyl)-4-methyl-4,5,6,7-tetrahydro-2H-pyrazolo[4,3-c]pyridine-5-carbonyl)-5-(tetrahydro-2H-pyran-4-yl)-1H-indol-1-yl)-2-methylcyclopropyl)-1,2,4-oxadiazol-5(4H)-one]	0.2 to 0.5 nM	0.1 to 1 nM
Cc1cc(-n2nc3c(c2-n2ccn(-c4ccc(P5(=O)CCN(C)CC5)cc4)c2=O)[C@H](C)N(C(=O)c2cc4cc(C5CCOCC5)ccc4n2[C@@]2(c4noc(=O)[nH]4)C[C@@H]2C)CC3)cc(C)c1F [Compound 126a, 3-((1S,2S)-1-(2-((S)-2-(4-fluoro-3,5-dimethylphenyl)-4-methyl-3-(3-(4-(1-methyl-4-oxido-1,4-azaphosphinan-4-yl)phenyl)-2-oxo-2,3-dihydro-1H-imidazol-1-yl)-4,5,6,7-tetrahydro-2H-pyrazolo[4,3-c]pyridine-5-carbonyl)-5-(tetrahydro-2H-pyran-4-yl)-1H-indol-1-yl)-2-methylcyclopropyl)-1,2,4-oxadiazol-5(4H)-one]	0.1 to 0.2 nM	0.1 to 1 nM
Cc1cc(-n2nc3c(c2-n2ccn(-c4ccc(P5(=O)CCCC5)cc4)c2=O)[C@H](C)N(C(=O)c2cc4cc(C5CCOCC5)ccc4n2[C@@]2(c4noc(=O)[nH]4)C[C@@H]2C)CC3)cc(C)c1F [Compound 127a, 3-((1S,2S)-1-(2-((S)-2-(4-fluoro-3,5-dimethylphenyl)-4-methyl-3-(3-(4-(1-oxidophospholan-1-yl)phenyl)-2-oxo-2,3-dihydro-1H-imidazol-1-yl)-4,5,6,7-tetrahydro-2H-pyrazolo[4,3-c]pyridine-5-carbonyl)-5-(tetrahydro-2H-pyran-4-yl)-1H-indol-1-yl)-2-methylcyclopropyl)-1,2,4-oxadiazol-5(4H)-one]	< 0.1 nM	≤ 0.1 nM
